Results: patent US20090143441A1, “Combination therapies of Thiazolidinedione analogues” (priority 2006, published 2009)

biological target: T1, PPARγ (Homo sapiens, UniProt P37231); assay: Commercial PPARγ binding assay (Invitrogen, PPAR-LBD/Fluormone PPAR Green complex); conditions: compound at 1 μM; average (SEM) of three experiments in quadruplicate
T1 construct: purchased Invitrogen Corporation, Carlsbad, Calif
T1 sequence (P37231 238-503 limits assumed): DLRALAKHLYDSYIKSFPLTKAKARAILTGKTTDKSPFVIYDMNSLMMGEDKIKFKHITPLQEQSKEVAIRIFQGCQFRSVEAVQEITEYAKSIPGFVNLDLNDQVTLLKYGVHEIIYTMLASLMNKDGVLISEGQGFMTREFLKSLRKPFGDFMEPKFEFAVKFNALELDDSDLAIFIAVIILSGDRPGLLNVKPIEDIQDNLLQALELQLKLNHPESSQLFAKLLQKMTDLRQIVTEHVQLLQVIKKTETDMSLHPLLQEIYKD
Procedure: The ability of several exemplary compounds of the present invention, shown in Table A, to bind to PPARγ was measured using a commercial binding assay (Invitrogen Corporation, Carlsbad, Calif.) that measures the test compounds ability to bind with PPAR-LBD/Fluormone PPAR Green complex. These assays were performed on three occasions with each assay using four separate wells (quadruplicate) at each concentration of tested compound. The data in Table B are average and SEM of three experiments, each of which were performed in quadruplicate on separate days. […] Compounds were added at the concentrations shown, which range from 0.1-100 micromolar.

| Compound | Activation of PPARγ | PPARγ ligand binding (Fluormone displacement signal) |
| --- | --- | --- |
| CCc1ccc([C@H](O)COc2ccc(CC3(C)SC(=O)NC3=O)cc2)nc1 (some centres unmarked) [Compound 9] | 239 (13) | – |
| CCc1ccc([C@@H](O)COc2ccc(CC3(C)SC(=O)NC3=O)cc2)nc1 (some centres unmarked) [Compound 8] | 239 (5) | – |
| CCc1ccc(CCOc2ccc(CC3(C)SC(=O)NC3=O)cc2)nc1 (centres unmarked) [Compound 7] | 248 (13) | – |
| CCc1ccc(C(=CC(=O)OC)COc2ccc(CC3SC(=O)NC3=O)cc2)nc1 (centres unmarked) [Compound 11] | – | 232 (12) |
| CCc1ccc(C(=O)COc2ccc(CC3(C)SC(=O)NC3=O)cc2)nc1 (centres unmarked) [Compound 10] | 240 (2) | – |
| CCc1ccc(CCOc2ccc(CC3(C)SC(=O)NC3=O)cc2)nc1 (centres unmarked) [Compound 6] | – | 233 (11) |

same assay, conditions: compound at 3 μM; average (SEM) of three experiments in quadruplicate

| Compound | PPARγ ligand binding (Fluormone displacement signal) |
| --- | --- |
| CCc1ccc([C@H](O)COc2ccc(CC3(C)SC(=O)NC3=O)cc2)nc1 (some centres unmarked) [Compound 9] | 233 (9) |
| CCc1ccc([C@@H](O)COc2ccc(CC3(C)SC(=O)NC3=O)cc2)nc1 (some centres unmarked) [Compound 8] | 241 (10) |
| CCc1ccc(CCOc2ccc(CC3(C)SC(=O)NC3=O)cc2)nc1 (centres unmarked) [Compound 7] | 237 (7) |
| CCc1ccc(C(=CC(=O)OC)COc2ccc(CC3SC(=O)NC3=O)cc2)nc1 (centres unmarked) [Compound 11] | 229 (10) |
| CCc1ccc(C(=O)COc2ccc(CC3(C)SC(=O)NC3=O)cc2)nc1 (centres unmarked) [Compound 10] | 234 (3) |
| CCc1ccc(CCOc2ccc(CC3(C)SC(=O)NC3=O)cc2)nc1 (centres unmarked) [Compound 6] | 223 (7) |

same assay, conditions: compound at 10 μM; average (SEM) of three experiments in quadruplicate

| Compound | PPARγ ligand binding (Fluormone displacement signal) | Activation of PPARγ |
| --- | --- | --- |
| CCc1ccc([C@H](O)COc2ccc(CC3(C)SC(=O)NC3=O)cc2)nc1 (some centres unmarked) [Compound 9] | 234 (12) | – |
| CCc1ccc([C@@H](O)COc2ccc(CC3(C)SC(=O)NC3=O)cc2)nc1 (some centres unmarked) [Compound 8] | 233 (7) | – |
| CCc1ccc(CCOc2ccc(CC3(C)SC(=O)NC3=O)cc2)nc1 (centres unmarked) [Compound 7] | 210 (9) | – |
| CCc1ccc(C(=CC(=O)OC)COc2ccc(CC3SC(=O)NC3=O)cc2)nc1 (centres unmarked) [Compound 11] | 165 (10) | – |
| CCc1ccc(C(=O)COc2ccc(CC3(C)SC(=O)NC3=O)cc2)nc1 (centres unmarked) [Compound 10] | – | 219 (5) |
| CCc1ccc(CCOc2ccc(CC3(C)SC(=O)NC3=O)cc2)nc1 (centres unmarked) [Compound 6] | 198 (10) | – |

same assay, conditions: compound at 50 μM; average (SEM) of three experiments in quadruplicate

| Compound | Activation of PPARγ | PPARγ ligand binding (Fluormone displacement signal) |
| --- | --- | --- |
| CCc1ccc([C@H](O)COc2ccc(CC3(C)SC(=O)NC3=O)cc2)nc1 (some centres unmarked) [Compound 9] | 189 (19) | – |
| CCc1ccc([C@@H](O)COc2ccc(CC3(C)SC(=O)NC3=O)cc2)nc1 (some centres unmarked) [Compound 8] | – | 199 (15) |
| CCc1ccc(CCOc2ccc(CC3(C)SC(=O)NC3=O)cc2)nc1 (centres unmarked) [Compound 7] | – | 144 (15) |
| CCc1ccc(C(=CC(=O)OC)COc2ccc(CC3SC(=O)NC3=O)cc2)nc1 (centres unmarked) [Compound 11] | 128 (30) | – |
| CCc1ccc(C(=O)COc2ccc(CC3(C)SC(=O)NC3=O)cc2)nc1 (centres unmarked) [Compound 10] | – | 126 (3) |
| CCc1ccc(CCOc2ccc(CC3(C)SC(=O)NC3=O)cc2)nc1 (centres unmarked) [Compound 6] | 126 (17) | – |

same assay, conditions: compound at 100 μM; average (SEM) of three experiments in quadruplicate

| Compound | Activation of PPARγ | PPARγ ligand binding (Fluormone displacement signal) |
| --- | --- | --- |
| CCc1ccc([C@H](O)COc2ccc(CC3(C)SC(=O)NC3=O)cc2)nc1 (some centres unmarked) [Compound 9] | 164 (20) | – |
| CCc1ccc([C@@H](O)COc2ccc(CC3(C)SC(=O)NC3=O)cc2)nc1 (some centres unmarked) [Compound 8] | 186 (16) | – |
| CCc1ccc(CCOc2ccc(CC3(C)SC(=O)NC3=O)cc2)nc1 (centres unmarked) [Compound 7] | – | 105 (10) |
| CCc1ccc(C(=CC(=O)OC)COc2ccc(CC3SC(=O)NC3=O)cc2)nc1 (centres unmarked) [Compound 11] | – | 78 (3) |
| CCc1ccc(C(=O)COc2ccc(CC3(C)SC(=O)NC3=O)cc2)nc1 (centres unmarked) [Compound 10] | – | 93 (3) |
| CCc1ccc(CCOc2ccc(CC3(C)SC(=O)NC3=O)cc2)nc1 (centres unmarked) [Compound 6] | – | 99 (12) |

same assay, conditions: compound at .1 μM; average (SEM) of three experiments in quadruplicate

| Compound | Activation of PPARγ | PPARγ ligand binding (Fluormone displacement signal) |
| --- | --- | --- |
| CCc1ccc([C@H](O)COc2ccc(CC3(C)SC(=O)NC3=O)cc2)nc1 (some centres unmarked) [Compound 9] | 237 (5) | – |
| CCc1ccc([C@@H](O)COc2ccc(CC3(C)SC(=O)NC3=O)cc2)nc1 (some centres unmarked) [Compound 8] | 237 (6) | – |
| CCc1ccc(CCOc2ccc(CC3(C)SC(=O)NC3=O)cc2)nc1 (centres unmarked) [Compound 7] | – | 249 (9) |
| CCc1ccc(C(=CC(=O)OC)COc2ccc(CC3SC(=O)NC3=O)cc2)nc1 (centres unmarked) [Compound 11] | – | 230 (12) |
| CCc1ccc(C(=O)COc2ccc(CC3(C)SC(=O)NC3=O)cc2)nc1 (centres unmarked) [Compound 10] | 245 (2) | – |
| CCc1ccc(CCOc2ccc(CC3(C)SC(=O)NC3=O)cc2)nc1 (centres unmarked) [Compound 6] | – | 246 (7) |

same assay, conditions: compound at .3 μM; average (SEM) of three experiments in quadruplicate

| Compound | Activation of PPARγ | PPARγ ligand binding (Fluormone displacement signal) |
| --- | --- | --- |
| CCc1ccc([C@H](O)COc2ccc(CC3(C)SC(=O)NC3=O)cc2)nc1 (some centres unmarked) [Compound 9] | 237 (4) | – |
| CCc1ccc([C@@H](O)COc2ccc(CC3(C)SC(=O)NC3=O)cc2)nc1 (some centres unmarked) [Compound 8] | 243 (5) | – |
| CCc1ccc(CCOc2ccc(CC3(C)SC(=O)NC3=O)cc2)nc1 (centres unmarked) [Compound 7] | 246 (5) | – |
| CCc1ccc(C(=CC(=O)OC)COc2ccc(CC3SC(=O)NC3=O)cc2)nc1 (centres unmarked) [Compound 11] | – | 227 (9) |
| CCc1ccc(C(=O)COc2ccc(CC3(C)SC(=O)NC3=O)cc2)nc1 (centres unmarked) [Compound 10] | 239 (2) | – |
| CCc1ccc(CCOc2ccc(CC3(C)SC(=O)NC3=O)cc2)nc1 (centres unmarked) [Compound 6] | – | 246 (9) |

tested on: normal male Sprague-Dawley rats with Medrol-induced hypertension; assay: Prevention of Medrol-induced hypertension, mean blood pressure by direct femoral arterial cannulation; format: in vivo; conditions: after a 6 hour fast on day 8; daily dosing, Compound 1 40 mg/kg/day, Medrol 20 mg/kg/day; N=9; * p<0.05 less than Medrol-treated rats
Procedure: Hypertension was induced in normal male Sprague-Dawley rats by daily dosing with the glucocorticoid methylprednisolone (Medrol) for 8 days. Separate groups of rats received the vehicle (1% carboxymethylcellulose/0.01% Tween 20) by oral gavage and some of both the vehicle-treated and Medrol-treated rats also received daily doses of compound 1 as shown in Table C. Mean blood pressure was measured by direct femoral arterial cannulation under fed conditions on day 7 and after a 6 hour fast on day 8. The data are mean and (SEM) mean blood pressure obtained by direct cannulation. N=9; * p<0.05 less than blood pressure in Medrol-treated rats.

| Compound | Mean blood pressure, Fasted |
| --- | --- |
| C[C@H]1C[C@@H]2[C@H]([C@@H](O)C[C@@]3(C)[C@H]2CC[C@]3(O)C(=O)CO)[C@@]2(C)C=CC(=O)C=C12 [Medrol, methylprednisolone, reference compound] | 122 |

same assay, conditions: fed conditions on day 7; daily dosing, Compound 1 40 mg/kg/day, Medrol 20 mg/kg/day; N=9; * p<0.05 less than Medrol-treated rats

| Compound | Mean blood pressure, Fed |
| --- | --- |
| C[C@H]1C[C@@H]2[C@H]([C@@H](O)C[C@@]3(C)[C@H]2CC[C@]3(O)C(=O)CO)[C@@]2(C)C=CC(=O)C=C12 [Medrol, methylprednisolone, reference compound] | 123 |
